Data published in patent US20240199648A1, “MAP4K1 INHIBITORS” (Blueprint Medicines Corporation, priority 2021, published 2024).

Legend:
MAP4K1 (HPK1) = biological target: T1, MAP4K1 (HPK1) (Homo sapiens, UniProt Q92918); test: Inhibition of MAP4K1 biochemical enzymatic activity (EZReader 2 electrophoretic mobility shift assay); details: HPK1 (Invitrogen), S6K2tide 1.5 μM, 120 min; ATP 26 μM or 1000 μM (not stated which)
T1 construct: purchased Invitrogen
Method in brief: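 Mobility-shift assay: 0.1-15 nM enzyme, 1.5 μM fluorescent peptide, 20-1000 μM ATP (apparent Km or 1 mM) in HEPES pH 7.5, MgCl2, DTT, Brij 35; 60-180 min at 25° C, 1% DMSO. Ten-point 4-fold compound series in duplicate; EDTA-stopped, product/substrate peak ratio read.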

Primary T Cell = test: T cell enhancement of cytokines: IL2 measurement (HTRF) in expanded CD3+ T cells stimulated with anti-CD3/anti-CD28; format: cell-based, human; details: Homo sapiens, T-cell, 24 h, plate-bound anti-CD3 and soluble anti-CD28, 24 h, read-out: IL-2 Primary T Cell EC50
Description: T cells are isolated from whole blood of healthy donors by immunomagnetic negative selection following manufacture's protocol (StemCell Technologies, human T cell isolation kit). Purity of isolated cells is assessed by flow cytometry and yields 95-98% CD3^+ T cells. For expansion of T cells, 1×10^6 cells/well are plated in serum free cell expansion media (ThermoFisher) containing 30U of recombinant human IL2 (R&D) and stimulated with 25 ul of CD3/CD28 beads (Invitrogen) in 24 well plates for 3-4 days. T cells are then expanded in 175 cm flasks and maintained at a cell density of 1 to 2.5×10^6 cells/ml days by addition of ⅔ of fresh media every 2-3 days. After 10-14 days, cells are frozen in BamBanker freezing media (Thermo) and stored in liquid nitrogen.
For IL2 measurement, expanded CD3+ T cells are dispensed at 100K cells/well (cultured in X-VIVO 10 Serum-free media) and are stimulated with plate-bound anti-CD3 and soluble anti-CD28 in the presence of vehicle or compound of the disclosure at various concentrations for 24 h. As outlined in the manufacturer's protocol (Cisbio), 16 μL of conditioned media is transferred to a white 384-well low volume plate. Following a 24 h incubation with the anti-IL2 antibodies, the homogenous time resolved fluorescence (HTRF) is measured.

T1 sequence (Q92918 whole entry): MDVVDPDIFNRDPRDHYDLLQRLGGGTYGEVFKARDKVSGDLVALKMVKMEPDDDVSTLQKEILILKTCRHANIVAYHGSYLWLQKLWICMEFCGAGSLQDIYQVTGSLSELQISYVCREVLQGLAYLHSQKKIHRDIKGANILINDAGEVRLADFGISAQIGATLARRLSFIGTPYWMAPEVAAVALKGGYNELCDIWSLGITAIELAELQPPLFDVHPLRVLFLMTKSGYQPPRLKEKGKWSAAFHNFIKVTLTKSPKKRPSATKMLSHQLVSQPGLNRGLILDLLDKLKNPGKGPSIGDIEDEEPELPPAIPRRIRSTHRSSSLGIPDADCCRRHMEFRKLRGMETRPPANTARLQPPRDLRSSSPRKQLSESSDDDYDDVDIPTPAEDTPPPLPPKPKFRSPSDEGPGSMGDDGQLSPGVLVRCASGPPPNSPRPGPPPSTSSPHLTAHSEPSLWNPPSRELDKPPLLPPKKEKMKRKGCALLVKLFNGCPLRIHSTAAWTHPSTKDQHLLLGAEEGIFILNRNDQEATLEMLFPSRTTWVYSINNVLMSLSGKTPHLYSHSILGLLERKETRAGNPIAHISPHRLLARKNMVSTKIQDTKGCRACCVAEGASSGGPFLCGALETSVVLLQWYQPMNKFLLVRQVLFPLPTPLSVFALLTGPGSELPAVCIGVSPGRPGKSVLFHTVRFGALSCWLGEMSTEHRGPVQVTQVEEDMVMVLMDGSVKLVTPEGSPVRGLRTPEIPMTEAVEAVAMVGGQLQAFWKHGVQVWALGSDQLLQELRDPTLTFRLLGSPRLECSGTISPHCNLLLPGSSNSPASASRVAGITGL

IC50 (MAP4K1 (HPK1)) [nM] | EC50 (Primary T Cell) [nM] | Structure (SMILES)
0.22 | 19.8 | C[C@@H]1c2nc(Nc3cc4c(C(C)(C)N)cnc(OC5CN(C(=O)N6CC(F)C6)C5)c4cn3)ccc2C(=O)OC1(C)C [Compound 95]
0.11 | 22.1 | C[C@@H]1c2nc(Nc3cc4c(C(C)(C)N)cnc(O[C@H]5C[C@@H](C(=O)N6CC(F)(F)C6)C5)c4cn3)ccc2C(=O)OC1(C)C [Compound 100]
0.13 | 17.8 | C[C@@H]1c2nc(Nc3cc4c(C(C)(C)N)cnc(OC5CN(C(=O)N6CC(F)(F)C6)C5)c4cn3)ccc2C(=O)OC1(C)C [Compound 101]
0.12 | 24 | C[C@@H]1OC(=O)c2ccc(Nc3cc4c(C(C)(C)N)cnc(OC5CN(C(=O)C6(C(F)(F)F)CC6)C5)c4cn3)nc2[C@H]1C [Compound 102]
0.43 | 9.6 | CC[C@@](C)(N)c1cnc(OC2CN(C(C)=O)C2)c2cnc(Nc3ccc4c(n3)C(C)(C)COC4=O)cc12 [Compound 111]
0.17 | 17.7 | CCC(=O)N1C[C@@H](Oc2ncc(C(C)(C)N)c3cc(Nc4ccc5c(n4)[C@@H](C)C(C)(C)OC5=O)ncc23)[C@@H]1C [Compound 118]
0.2 | 90 | COC[C@@](C)(N)c1cnc(O[C@@H]2CN(C(C)=O)[C@H]2C)c2cnc(Nc3ccc4c(n3)[C@@H](C)[C@H](C)OC4=O)cc12 [Compound 119]
0.25 | 29.4 | CCC(=O)N1CC(Oc2ncc([C@](C)(N)COC)c3cc(Nc4ccc5c(n4)[C@@H](C)[C@H](C)OC5=O)ncc23)C1 [Compound 120]
0.2 | 41.5 | COC[C@@](C)(N)c1cnc(OC2CN(C(=O)OC)C2)c2cnc(Nc3ccc4c(n3)[C@@H](C)[C@H](C)OC4=O)cc12 [Compound 121]
0.12 | 53.7 | COC[C@@](C)(N)c1cnc(OC2CN(C(C)=O)[C@H]2C)c2cnc(Nc3ccc4c(n3)[C@@H](C)C(C)(C)OC4=O)cc12 (stereo partly drawn) [Compound 122]
0.1 | 60.8 | CCC(=O)N1CC(Oc2ncc([C@](C)(N)COC)c3cc(Nc4ccc5c(n4)[C@@H](C)C(C)(C)OC5=O)ncc23)C1 [Compound 123]
0.17 | 130 | COC[C@@](C)(N)c1cnc(OC2CN(C(=O)OC)C2)c2cnc(Nc3ccc4c(n3)[C@@H](C)C(C)(C)OC4=O)cc12 [Compound 125]
